The values that follow come from BindingDB's records for doi:10.1016/j.bmcl.2012.12.050 (Actelion Pharmaceuticals, 2013).

The nature of this assay: Antagonist activity against CRTh2 receptor in human eosinophils assessed as cell shape change.

pIC50: −log10 of the molar value.

As to `N#C/C(=C\c1cn(CC(=O)O)c2ccccc12)C(=O)N1CCCc2ccccc21`, the pIC50 was 6.80.
